This is an account of results in patent publication US20230165888A1, “OLIGONUCLEOTIDE HAVING ANTI-INFLAMMATORY ACTIVITY” (priority 2019, published 2023).

Holding throughout (format): cell-based
The subject of data set [1] is BV2 cells, a mouse microglia cell line. In words: NO production in BV2 microglia stimulated with LPS + interferon-gamma. The settings on record: LPS 100 ng/ml + interferon-gamma 50 unit/ml, oligonucleotide after 2 hours, FIG. 4.
Data set [2] shares this test system. In words: Pro-inflammatory cytokine gene expression in BV2 microglia (PCR). The conditions noted are these: LPS 100 ng/ml + interferon-gamma 50 unit/ml, FIG. 5. On the procedure:
The expression amount of cytokines was confirmed by measuring the expression level of cytokine genes in the BV2 cells using conventional PCR analysis, and the specific method is as follows. Total ribonucleic acid (RNA) was extracted from the treated cells using a TRIZOL reagent (Invitrogen, Carlsbad, Calif., United States). Reverse transcription (RT) was carried out using Superscript II reverse transcriptase (Invitrogen) and oligo (dT) primers. PCR amplification was carried out in a C1000 Touch Thermal Cycler (Bio-Rad, Richmond, Calif., United States) at an annealing temperature of 55-60° C. in 25-32 cycles using specific primer sets. The PCR product having ethidium bromide was electrophoresed on a 1% agarose gel and irradiated with ultraviolet rays to observe bands.

For data set [3], the system named is mouse primary astrocytes. In words: NO production in mouse primary astrocytes stimulated with LPS + interferon-gamma. The conditions noted are these: LPS 100 ng/ml + interferon-gamma 50 unit/ml, oligonucleotide after 2 hours, FIG. 6. On the procedure: (§1) The prepared astrocytes were treated with LPS (100 ng/ml)+interferon-gamma (50 unit/ml) for inflammatory stimulation, and allowed to stand for 2 hours, and then treated with the oligonucleotide (15 bp Oligo25, SEQ ID NO: 11) to confirm the amount of NO produced and the expression amount of cytokines.

For data set [4], the system named is mouse primary astrocytes. Description: Cytokine gene expression in mouse primary astrocytes (PCR). The settings on record: LPS 100 ng/ml + interferon-gamma 50 unit/ml, FIG. 7. The procedure:
as §1
The expression amount of cytokines was confirmed by measuring the expression level of the cytokine genes using the conventional PCR analysis described in Example 5 above, and the concentration of cytokine proteins in the cell culture using Western blotting.

The test system of data set [5] is mouse primary chondrocytes. Description: Osteoarthritis marker gene expression in IL-1β-treated mouse primary chondrocytes (real-time PCR). The settings on record: oligonucleotide 10 ng/mL 2 hours, then IL-1β 6 hours, FIG. 8. A general note: Quantitative PCR measures a nucleic acid by following its amplification.

“AGG GAG GGA GGG AGG (DNA AGGGAGGGAGGGAGG; listed as DNA, chemistry not given here) [15 bp Oligo25, 15 bp oligonucleotide with ratio of adenosine and guanosine 1:3]”: the NO production result in data set [1] was “NO production was reduced in proportion to the treatment concentration”. In data set [2], the “expression level of IL-1β gene” value is on record as “significantly reduced”, the “expression level of IL-6 gene” value is listed as “significantly reduced” and the “expression level of TNF-α gene” value was “significantly reduced”. Besides, in the data set with mouse primary astrocytes [3], the NO production result was “NO production was reduced in proportion to the treatment concentration”. Further, in the data set on mouse primary astrocytes [4], the “expression level of IL-1β gene” value is “significantly reduced”, the “expression level of IL-6 gene” value was “significantly reduced”, the “expression level of TNF-α gene” value is “significantly reduced” and the “expression level of anti-inflammatory cytokine IL-10 gene” value is on record as “significantly increased”. In addition, in data set [5], the “expression level of ADAMTS5 gene” value was “increased”, the “expression level of MMP3 gene” value is recorded as “reduced”, the “expression level of MMP9 gene” value is “reduced” and the “expression level of MMP12 gene” value is reported as “reduced”. Also, the “expression level of MMP13 gene” value in data set [5] is recorded as “reduced”.
